{
  "source": "patent US20250314656A1",
  "about": "“GENETICALLY ENCODED FLUORESCENT INDICATOR OF D-2-HYDROXYGLUTARATE” (priority 2024, published 2025)",
  "key": {"[1]": {"test_system": "IDH1 wildtype U87MG cells", "assay": "Live-cell D2HGlo FRET ratio after inhibitor treatment, wildtype cells", "format": "cell-based, human", "method": "(A) Left: Representative image of a wild-type IDH1 U87MG cell expressing Cyto-D2HGlo. Scale bar is 25 μm. […] (B) Left: Representative image of a wild-type IDH1 U87 clel cell expressing Nuc-D2HGlo. Scale bar is 25 μm. […] (C) Left: Representative image of a wild-type IDH1 U87 cell expressing Mito-D2HGlo. Scale bar is 25 μm.\n(§1) Statistical analysis was performed using a one-way ANOVA test with post hoc Tukey (**, P<0.01; *, P<0.05). […] Statistical analysis was performed using a one-way ANOVA test with post hoc Tukey (*, P<0.05);\nFluorescence Live-Cell Imaging."}, "[2]": {"molecular_target": "D2HGlo (Variant 2, SEQ ID NO: 4; Variant 2 truncated DhdR SEQ ID NO: 2, two residues removed from each terminus, between ECFP and cpVenus173) (Achromobacter denitrificans, UniProt A0ABZ3FXY3)", "format": "binding, Achromobacter denitrificans NBRC 15125", "settings": "concentrations up to 100 μM"}, "[3]": {"test_system": "IDH1 wildtype U87MG cells", "assay": "D-2-HG concentration in cell culture supernatant measured with purified D2HGlo, wildtype cells", "format": "cell-based, human", "method": "as §1\nBoth cell lines were left untreated or exposed to AG-120 (3 μM) for 48 hours prior to measurements. (B) Titration of purified D2HGlo with increasing concentrations of D-2-HG (100 nM-1 mM) spiked into human serum. […] (D) Titration of purified D2HGlo with increasing concentrations of D-2-HG (100 nM-1 mM) spiked into human urine. […] (F) Titration of purified D2HGlo with increasing concentrations of D-2-HG (100 nM-1 mM) spiked into aCSF.\nCell Culture Supernatant: U87MG IDH1 wildtype and mutant cells were plated at 60% confluence in 6-well plates. For some experiments, AG-120 in DMSO (3 μM), Glutaminase inhibitor (1 μM), or 2-DG (10 mM) was added to the cell culture media before plating the cells. For all conditions and cell lines, the cell culture supernatant was collected after 48 hours of incubation at 37° C. 10 μL of cell culture media was mixed with 90 μL of purified D2HGlo (5 μM), and the FRET ratios were collected. D-2-HG levels were estimated by using the titration curve as a calibration curve and converting the FRET ratios of unknowns into concentrations. Biological Fluids: Urine and serum were collected from three healthy donors while aCSF was purchased (Tocris Bioscience)."}, "[4]": {"test_system": "IDH1 wildtype U87MG cells", "assay": "FRET imaging of D2HGlo in IDH1 wildtype U87MG cells", "format": "cell-based, human", "settings": "Compound 968 1 μM, approx. 5.5 minutes", "method": ". […] . This evidence further supports the specificity of D2HGlo to endogenous D-2-HG in situ. […] . […] .\nThe inventors utilized the glutaminase C inhibitor Compound 968 and 2-Deoxy-D-glucose (2-DG), an inhibitor of glycolysis. […] . Cell Culture and Transfection. […] Cells were transfected 24 hours after plating with 1.0 μg D2HGlo constructs and 3.0 μL Trans-IT®-LT1 transfection reagent (Mirus Bio, Madison, WI). The cells were allowed to express for 48 hours before imaging.\nFluorescence Live-Cell Imaging. […] The standard imaging parametersD2HGlo sensors were: 457 excited at 458 nm laser line and 482 nm and 531 nm and the fluorescent signal was collected using a BA 480-495 emission filter (ECFP) and a BA 535-565 emission filter (FRET). The FRET ratio was determined by dividing the FRET signal by the ECFP signal. […] . The maximum FRET ratio was determined for the entire time-course and normalized to the baseline FRET ratio. […] A region of interest was drawn on each cell, and the average FRET ratio within each ROI was determined. In some sets of experiments, cells were treated with AG-120 (3 μM) for 48 hours prior to FRET ratio collection. Alternatively, glutaminase inhibitor (1 μM), or 2-DG (10 mM) were added to imaging wells after collecting baseline FRET values for 30 seconds."}, "[5]": {"settings": "several freeze-thaw cycles or exposure to excess heat; cited from earlier work"}, "[6]": {"test_system": "2-HG", "settings": "newly diagnosed and advanced cancer; cited from earlier work"}},
  "note": "Where two headings read alike, the source gives them in different places.",
  "data": [
    {"smiles": "O=CC[C@@H](O)[C@H](O)[C@H](O)CO", "note": "[Variant 2-DG, 2-Deoxy-D-glucose]", "values": [
      {"measurement": "acute change of Cyto-D2HGlo FRET ratio", "setting": "[1]; 2-DG 10 mM, approximately 5.5 minutes", "result": "unaffected"}
    ]},
    {"smiles": "O=C(O)CC(=O)C(=O)O", "note": "[Oxaloacetate, Oxaloacetic acid]", "values": [
      {"measurement": "response of D2HGlo (FRET ratio) to metabolite", "setting": "[2]", "result": "does not respond"}
    ]},
    {"smiles": "O=C(O)CCC(=O)O", "note": "[Succinate, succinic acid]", "values": [
      {"measurement": "response of D2HGlo (FRET ratio) to metabolite", "setting": "[2]", "result": "does not respond"}
    ]},
    {"smiles": "C[C@H](O)C(=O)O", "note": "[Lactate, sodium L-lactate]", "values": [
      {"measurement": "response of D2HGlo (FRET ratio) to metabolite", "setting": "[2]", "result": "does not respond"},
      {"measurement": "response of D2HGlo (FRET ratio) to metabolite", "setting": "[2]; listed as lactate", "result": "did not respond"}
    ]},
    {"smiles": "O=C(O)CC(O)(CC(=O)O)C(=O)O", "note": "[Citrate]", "values": [
      {"measurement": "response of D2HGlo (FRET ratio) to metabolite", "setting": "[2]", "result": "does not respond"}
    ]},
    {"smiles": "O=C(O)CC(O)C(=O)O", "note": "(racemic) [Malate, sodium hydrogen DL-malate]", "values": [
      {"measurement": "response of D2HGlo (FRET ratio) to metabolite", "setting": "[2]", "result": "does not respond"}
    ]},
    {"smiles": "CN(C)c1ccc(C2Nc3ccc4ccccc4c3C3=C2C(=O)CC(C)(C)C3)cc1Br", "note": "(stereo not shown) [Compound 968]", "values": [
      {"measurement": "D-2-HG accumulation in supernatant", "setting": "[3]; Compound 968 1 μM for 48 hours", "result": "nor did it affect D-2-HG accumulation in cell culture supernatants"},
      {"measurement": "acute change of FRET ratio (Cyto-D2HGlo)", "setting": "[4]", "result": "did not elicit any changes in FRET ratio"}
    ]},
    {"smiles": "O=C(O)CC[C@@H](O)C(=O)O", "note": "[Variant D-2-HG, D-2-hydroxyglutarate]", "values": [
      {"measurement": "stability in biological fluids", "setting": "[5]", "result": "remains stable"}
    ]},
    {"smiles": "N[C@@H](CCC(=O)O)C(=O)O", "note": "[Glutamate, L-glutamic acid]", "values": [
      {"measurement": "response of D2HGlo (FRET ratio) to metabolite", "setting": "[2]", "result": "does not respond"},
      {"measurement": "response of D2HGlo (FRET ratio) to metabolite", "setting": "[2]; listed as glutamate", "result": "did not respond"}
    ]},
    {"smiles": "O=C(O)CCC(=O)C(=O)O", "note": "[α-ketoglutarate, α-ketoglutaric acid]", "values": [
      {"measurement": "response of D2HGlo (FRET ratio) to metabolite", "setting": "[2]", "result": "does not respond"}
    ]},
    {"smiles": "N#Cc1ccnc(N2C(=O)CC[C@H]2C(=O)N(c2cncc(F)c2)[C@H](C(=O)NC2CC(F)(F)C2)c2ccccc2Cl)c1", "note": "[AG-120]", "values": [
      {"measurement": "effect on 2-HG levels in patients", "setting": "[6]", "result": "reduction of 2-HG to levels similar to those seen in healthy populations"},
      {"measurement": "effect on D-2-HG levels", "setting": "[1]; AG-120 3 μM for 48 hours", "result": "had no effect on D-2-HG levels"},
      {"measurement": "D-2-HG concentration in supernatant", "setting": "[3]; AG-120 3 μM for 48 hours", "result": "2.79 ± 0.41", "unit": "µM"}
    ]}
  ]
}
